Reference: patent publication US7241738B2, “Peptides effective in the treatment of tumors and other conditions requiring the removal or destruction of cells” (Nymox Pharmaceutical Corporation, priority 2001, dated 2007)
Where “and” joins values, the source holds several entries; their conditions need not be identical. Identical values can stand only once. Peptide text beside a SMILES is read from it.

What was measured:
rat prostate = test: Intraprostatic infusion in rats; prostate volume and histology at 72 hours; assay type: in vivo, rat (Sprague-Dawley); settings: for prostate histology (H & E): intraprostatic infusion, rats sacrificed after 72 hours
Procedure: (§1) Male Sprague-Dawley rats (300 gram weight range) were anesthetized with ether and given NTP peptide #6 by intraprostatic infusion after open surgical visualization of the prostate. The injections consisted of 300 μl of NTP peptide #6, 1 mg/mL in PBS pH 7.4. (1.0 mg/kg) (n=8), control injections of PBS alone (n=6), and controls with no injection (n=2). Rats were painlessly sacrificed after 72 hours. Prostate glands were dissected, fixed in 10% buffered formalin for 24 hours, embedded in paraffin, sectioned, and stained with H & E. For each animal the entire prostate gland was embedded and sectioned. All stained sections were examined histologically and measured. For each prostate at least 4 histological sections were examined, and for each histological section two cross-sectional diameters (D) at 90° from each other were measured (total of ≧8 measurements per prostate). The mean diameter from these measurements for each prostate was used to estimate volume according to
as §1, with “Related Peptide #2” for “NTP peptide #6”, “Related Peptide #2,” for “NTP peptide #6,”, “>8” for “≧8”
The controls were the same as Example 1.
Normal rats were injected in the prostate as in the above Examples 1 and 4 with Related Peptide #3. Rats were painlessly sacrificed after 72 hours and their prostate glands were examined as in the above Examples 1 and 4.

[1] = test system: muscle tissue, subcutaneous connective tissue, and dermis at injection sites; test: Injection into skin, subcutaneous tissue and extremity skeletal muscle of normal rats; histopathology at 24 hours; assay type: in vivo, rat
Source text: The individual foci of infiltration were excised, fixed in 10% formalin, embedded in paraffin, and stained and examined by standard histopathological methods.
The controls received saline alone.
Tissues were excised, fixed in 10% formalin, embedded in paraffin, and stained and examined by standard histopathological methods.

[2] = test system: normal rodent muscle tissue, subcutaneous connective tissue, dermis; human and non-human origin tumors; settings: dermis and a variety of human and non-human origin tumors in rodent models; cited from earlier work

GLLFPVFSVCYLIAPKSPLGL [Related Peptide #3]
prostate histology (H & E) (rat prostate): Significant cell loss and atrophy of prostate

CC[C@H](C)[C@H](NC(=O)[C@H](CCC(=O)O)NC(=O)[C@H](CC(C)C)NC(=O)[C@H](CCCCN)NC(=O)[C@@H](NC(=O)[C@H](CCCNC(=N)N)NC(=O)[C@H](CO)NC(=O)[C@@H](N)CC(C)C)[C@@H](C)CC)C(=O)N[C@@H](CCCCN)C(=O)O [NTP peptide #7, LSRIKLEIK] (H-LSRIKLEIK-OH; N-terminus and C-terminus assumed)
spread of necrosis beyond the site of injection [1]: did not appear to spread far beyond the site of injection

QQSIAVKFLAVFGVSI [Related Peptide #2]
prostate histology (H & E) (rat prostate): significant cell loss and atrophy in the prostate

AD7c-NTP: ˜41 kD neural thread protein, membrane associated phosphoprotein, SEQ ID NO. 1
causing cell death in vivo [2]: effective agent for causing cell death

IDQQVLSRIKLEIKRCL [NTP peptide #6]
prostate histology (H & E) (rat prostate): extensive loss of glandular epithelium, flattening and atrophy
reduction in prostate volume compared to controls (rat prostate; intraprostatic open infusion 1.0 mg/kg (300 μl, 1 mg/mL in PBS pH 7.4), 72 hours, vs untreated or PBS treated controls, estimated from mean diameters): 45% and > 40%

GDHGRPNLSRLKLAIKYEVKKM [Related Peptide #1]
histopathology of tissue at injection sites ([1]; at 0.1-1 mg/mL in saline): cell death and necrosis of tissue at the injection sites
